Measurements published in ChEMBL document CHEMBL5727027, “Compounds useful as CCR9 modulators” (2018).

Biological target: T1, C-C chemokine receptor type 9 (Homo sapiens, UniProt P51686)
T1 sequence (P51686 whole entry): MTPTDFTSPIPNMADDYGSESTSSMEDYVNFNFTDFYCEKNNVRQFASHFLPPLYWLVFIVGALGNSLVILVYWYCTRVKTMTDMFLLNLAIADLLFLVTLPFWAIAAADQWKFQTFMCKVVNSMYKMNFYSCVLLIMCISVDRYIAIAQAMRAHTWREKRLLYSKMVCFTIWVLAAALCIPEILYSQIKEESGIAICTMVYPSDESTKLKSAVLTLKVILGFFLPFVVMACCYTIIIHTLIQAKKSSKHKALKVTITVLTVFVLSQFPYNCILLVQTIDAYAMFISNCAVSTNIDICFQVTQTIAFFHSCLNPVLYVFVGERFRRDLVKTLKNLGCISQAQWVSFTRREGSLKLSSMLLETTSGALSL
Test: FLIPR Assay: A calcium flux assay was used to determine the ability of the compounds to interfere with the binding between CCR9 and its chemokine ligand (TECK) in Chem1-hCCR9 overexpressing cells. hCCR9 overexpressing cells were seeded (25,000 cells/well) into black Poly-D-Lysine coated clear bottom 96-well plates (BD Biosciences, Cat #356640) and incubated overnight at 37° C./5% CO2 in a humidified incubator. Media was aspirated and cells washed twice with 100 μL assay buffer (1×HBSS, 20 mM HEPES) containing 2.5 mM Probenecid. A 0.3× Fluo-4 NW calcium dye was prepared in assay buffer containing 5 mM Probenecid and stored in the dark. Each well was loaded with 100 μL of 0.3× Fluo-4 NW calcium dye and incubated at 37° C./5% CO2 for 60 minutes and then at room temperature for 30 minutes. A half-log serially diluted concentration response curve was prepared at a 3× final assay concentration for each compound (10 μM-0.1 nM final assay concentration) and 50 μL of the compound then transferred to the cells (150 μL final volume) for 60 minutes prior to stimulation (30 minutes at 37° C./5% CO2 and 30 minutes at room temperature). TECK was diluted to 4× its EC80 in assay buffer (containing 0.1% [w/v] bovine serum albumin [BSA]) and 50 μL dispensed through the fluorometric imaging plate reader (FLIPR) instrument to stimulate the cells (200 μL final volume). […]
Format: cell-based

CC(C)(C)c1ccc(S(=O)(=O)Nc2ccc(C#N)c3c2C(=O)N(Cc2ccc[n+]([O-])c2)C3=O)cc1
Ki: 84 nM
